Patent US11180423B2, “Compositions and methods for micronutrient introduction” (CHS INC., priority 2014, dated 2021)

Tests used:
corn = assay: 2014 Corn Trial—Scandia, Kans.; assay type: in vivo; conditions: starter fertilizer treatment groups; for yield response (effect in words): FIG. 1, Table 8, improvement especially for groups without micronutrients (10-34-0, 9-18-9)
Protocol: A corn trial utilizing a composition of the instant disclosure was performed near Scandia, Kans., in 2014. In this example, the composition comprised ortho-ortho EDDHA as the exemplary ligand (i.e., “WC101”).
In this example, corn was planted on May 2, 2014. Treatments were applied as starter applications at planting with an application volume of 6 gpa. Weed control was completed as needed to keep weed free with maintenance sprays.
Data collected included yield (bu/acre), test weight, moisture, preliminary soil analysis, and plant tissue and grain analysis. Grain yield was measured harvesting the two center rows with a plot combine. Total phosphorus (P) content in plant tissue was measured for the ear leaf and grain P concentration was measured after harvest with grain analysis for total P content.
Fertilizer treatment mixes were completed before application. […] Although treatment application was complicated in some instances, the rates and placement for the instant example were believed to be within acceptable parameters. Grain yield was measured harvesting the two center rows with a plot combine. Total phosphorus (P) content in plant tissue was measured for the ear leaf and grain P concentration was measured after harvest with grain analysis for total P content.

corn seeds = assay: 2013 Corn Seed Trial—Brookings, S. Dak.; assay type: in vivo; conditions: corn seed treatment; compared to untreated controls
Protocol: A corn seed trial utilizing a composition of the instant disclosure was performed in Brookings, S. Dak., in 2013. In this example, the composition comprised ortho-ortho EDDHA as the exemplary ligand (i.e., “WC101”). The study design was randomized complete block (RCB) with four replications. […] [table] Plot unit sizes were approximately 10 feet by 40 feet according to the disclosed layout of FIG. 9.

[1] = system: corn variety Pioneer 8640 Roundup Ready; assay: 2013 Corn Trial—Casselton, N. Dak.; assay type: in vivo; conditions: compared to untreated controls
[2] = system: corn variety Dekalb 45-51; assay: 2013 Corn Trial—Brookings, S. Dak.; assay type: in vivo; conditions: compared to untreated controls
Protocol: A corn trial utilizing a composition of the instant disclosure was performed near Brookings, S. Dak., in 2013. In this example, the composition comprised ortho-ortho EDDHA as the exemplary ligand.
In this example, corn variety Dekalb 45-51 was planted on May 14, 2013. Corn was planted to a population of 32,000 plants per acre, and a 30-inch row spacing was used. The soil type was Brandt silty clay loam.
Corn plants were harvested on Oct. 24, 2013. Thereafter, the yield of corn plants administered the composition comprising ortho-ortho EDDHA was compared to the yield of control corn plants that were untreated.

[3] = system: glycine max (variety PB0954RR) soybean; assay: 2013 Soybean Trial—St. Cloud, Minn.; assay type: in vivo; conditions: compared to untreated controls
Protocol: A soybean trial utilizing a composition of the instant disclosure was performed in St. Cloud, Minn., in 2013. In this example, the composition comprised ortho-ortho EDDHA as the exemplary ligand.
(§1) In this example, glycine max (variety PB0954RR) soybean seeds were planted on Jun. 17, 2013. The tillage type was conventional till. The treated crop area for the instant example was 300 square feet (ft^2). The study design was randomized complete block (RCB) with four replications.
Soybean plants were harvested on Oct. 11, 2013. Thereafter, yield of soybean plants administered the composition comprising ortho-ortho EDDHA was compared to the yield of control soybean plants that were untreated.

[4] = system: Zea mays (variety DKC 43-48); assay: 2012 Corn Trial—St. Cloud, Minn.; assay type: in vivo; conditions: in furrow, compared to untreated controls
Protocol: A corn trial utilizing a composition of the instant disclosure was performed in St. Cloud, Minn., in 2012. In this example, the composition comprised ortho-ortho EDDHA as the exemplary ligand.
as §1, with “Zea mays” for “glycine max”, “DKC 43-48)” for “PB0954RR) soybean”, “May 15, 2012. Soil moisture was normal and the seed bed was compacted.” for “Jun. 17, 2013.”
Corn plants were harvested on Oct. 10, 2012. Thereafter, the yield of corn plants administered the composition comprising ortho-ortho EDDHA was compared to the yield of control corn plants that were untreated.

[5] = Visual observations of fertilizer treatment mixes; assay type: physicochemical; conditions: various fertilizers, for instance 9-18-9

Q: Which “yield response (effect in words)” value (corn; listed as WC101) does the source give for `O=C(O)C(NCCNC(C(=O)O)c1ccccc1O)c1ccccc1O` (stereo not shown) [ortho-ortho EDDHA] here?
A: improvement

Q: What about the “yield response (effect in words)” value (corn; listed as ligand) of the same molecule?
A: statistically significant effect

Q: What about the “plant tissue phosphorus (P) response, ear leaf (effect in words)” value (corn; FIG. 2, Table 8, listed as WC101) of the same molecule?
A: improvement

Q: What about the “plant tissue phosphorus (P) response, ear leaf (effect in words)” value (corn; FIG. 2, Table 8, listed as ligand) of the same molecule?
A: statistically significant effect

Q: What about the “grain P removal response (effect in words)” value (corn; FIG. 3, Table 8, listed as WC101) of the same molecule?
A: improvement

Q: And the “grain P removal response (effect in words)” value (corn; FIG. 3, Table 8, listed as ligand)?
A: statistically significant effect

Q: And the emergence increase (corn seeds)?
A: 3.5%

Q: And the yield increase (corn seeds)?
A: 1.4 bushels per acre

Q: And the yield increase [1]?
A: 4.6 bushels per acre

Q: What about the yield increase [2] of the same molecule?
A: 8.2 bushels per acre

Q: And the yield increase [3]?
A: 5.1 bushels per acre

Q: And the yield increase [4]?
A: 8.5 bushels per acre

Q: What about the “compatibility with fertilizers in treatment mixes” value [5] of the same molecule?
A: possible compatibility issues
